In paper PMC5358767 (PLoS ONE, 2017):
Where a name gives a salt, the structure may show the parent alone. Read-outs that look alike come from different tables or passages of the source. abz = not defined here; dnp = not defined here

Experiments:
[1] = system: S. suis; assay: microbe, parasite or virus in culture; design: species or system Streptococcus suis; microtiter broth dilution MIC of natural products against S. suis
Protocol: To find potent Ss-SrtA inhibitors, the 11 natural products listed in S1 Table were selected for experimental validation using purified recombinant Ss-SrtA. […] Using the microtiter broth dilution method, we measured the MIC values of all these natural products to be >500 μM (S1 Table). […] S. suis strains were cultured in Todd–Hewitt broth (THB; Oxoid Ltd.) without shaking or Todd–Hewitt broth agar plates at 37°C with 5% CO2. E. coli and S. aureus strains were grown in Luria-Bertani (LB) medium at 37°C with shaking at 200 rpm or plated on LB agar. If required, cultures were supplemented with antibiotics at the following concentrations: erythromycin, 3 μg ml^−1 for S. aureus; ampicillin, 100 μg ml^−1 for E. coli.

[2] = target: T1, Sortase A (Ss-SrtA) (Streptococcus suis, UniProt Q8VUP7); assay: fluorescence-quenched peptide (abz-LPATG-dnp) hydrolysis assay with recombinant enzyme; assay type: biochemical
T1 construct: residues N24-Q235, C-terminal His-tag

[3] = target: T2, Sortase A (Sa-SrtA) (Staphylococcus aureus, UniProt Q2FV99); assay: SrtA-dependent fluorescent peptide incorporation in live cells, flow cytometry; […] inhibition at […]; assay type: cell-based
T2 construct: endogenous, S. aureus Newman D2C cells

[4] = target: T2, Sortase A (Sa-SrtA); assay: as above; assay type: cell-based; remark: listed apart in the source
[5] = target: T2, Sortase A (Sa-SrtA); assay: as above; assay type: cell-based; remark: listed apart in the source
[6] = target: Streptococcus suis sortase A (recombinant, residues N24-Q235 with C-terminal His-tag) (Streptococcus suis)
[7] = Streptococcus suis, read-out: MIC

T1 sequence (Q8VUP7 entry or part of it): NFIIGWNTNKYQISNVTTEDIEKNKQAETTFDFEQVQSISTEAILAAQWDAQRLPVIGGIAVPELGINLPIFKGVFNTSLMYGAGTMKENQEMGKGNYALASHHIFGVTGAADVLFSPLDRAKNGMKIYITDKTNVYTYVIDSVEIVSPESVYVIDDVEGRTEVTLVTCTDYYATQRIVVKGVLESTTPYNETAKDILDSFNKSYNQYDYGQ
T2 sequence (Q2FV99 whole entry): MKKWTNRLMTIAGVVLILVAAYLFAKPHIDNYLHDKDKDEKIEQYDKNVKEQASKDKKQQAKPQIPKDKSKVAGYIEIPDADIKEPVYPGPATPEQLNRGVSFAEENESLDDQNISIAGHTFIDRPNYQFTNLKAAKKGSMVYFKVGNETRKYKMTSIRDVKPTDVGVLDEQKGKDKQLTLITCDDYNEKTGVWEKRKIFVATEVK

| Molecule | MIC [1, 7] | IC50 [2] | other results |
| --- | --- | --- | --- |
| CCCCC[C@H](O)CC(=O)CCc1ccc(O)c(OC)c1 [6-Gingerol] | > 500 µM | – | – |
| COc1cc(/C=C/C(=O)CC(=O)/C=C/c2ccc(O)c(OC)c2)ccc1O [curcumin] | > 500 µM | < 100 µM | – |
| O=c1cc(-c2ccc(O)cc2)oc2c([C@@H]3O[C@H](CO)[C@@H](O)[C@H](O)[C@H]3O)c(O)cc(O)c12 [Vitexin] | – | – | MIC ([1]; inhibitor): >500 µM |
| O=c1c(O)c(-c2ccc(O)c(O)c2)oc2cc(O)cc(O)c12 [quercetin] | > 500 µM | < 100 µM | – |
| C[C@@H]1O[C@@H](O[C@@H]2[C@@H](O)[C@H](OCCc3ccc(O)c(O)c3)O[C@H](CO)[C@H]2OC(=O)/C=C/c2ccc(O)c(O)c2)[C@H](O)[C@H](O)[C@H]1O [acteoside] | > 500 µM | 36.3 ± 1.3 µM | inhibition at 200 µM [3]: 86% |
| O=c1c(O[C@@H]2O[C@H](CO)[C@@H](O)[C@H](O)[C@H]2O)c(-c2ccc(O)c(O)c2)oc2cc(O)cc(O)c12 [isoquercitrin] | > 500 µM | – | inhibition at 200 µM [4]: 28% |
| O=c1cc(-c2ccccc2)oc2cc(O)c(O)c(O)c12 [Baicalein] | > 500 µM | – | – |
| C[C@@H]1O[C@@H](OC[C@H]2O[C@@H](Oc3c(-c4ccc(O)c(O)c4)oc4cc(O)cc(O)c4c3=O)[C@H](O)[C@@H](O)[C@@H]2O)[C@H](O)[C@H](O)[C@H]1O [Rutin] | > 500 µM | – | – |
| COc1ccc2cc3[n+](cc2c1OC)CCc1cc2c(cc1-3)OCO2 [berberine hydrochloride] | > 500 µM | < 100 µM | – |
| O=C(O)[C@H]1O[C@@H](Oc2cc3oc(-c4ccccc4)cc(=O)c3c(O)c2O)[C@H](O)[C@@H](O)[C@@H]1O [baicalin] | > 500 µM | 85.4 ± 1.5 µM | inhibition at 200 µM [5]: 45% |
| COc1c(O)cc(O)c2c(=O)cc(-c3ccccc3)oc12 [Wogonin] | > 500 µM | – | – |
| abz-LPATG-dnp (reading uncertain; also: printed as abz-LPATG-dnp) [abz-LPATG-dnp (internally quenched fluorescent peptide substrate)] | – | – | Km for the hydrolysis of abz-LPATG-dnp by purified Ss-SrtA (fluorescence increase of the quenched peptide; substrate 0.375-64 μM; 50 mM Tris·HCl, 150 mM NaCl, pH 7.5, 37°C) [6]: 6.7 μM |
